Test results as given in PubChem BioAssay AID504468 (NMMLSC, 2011).
Active and inactive are the calls of the source.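 The calls were made as follows: active = compounds with a fitted EC50 of 33 micromolar or lower for the MEP2 GFP signal; inactive = the rest.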

Test system: not listed separately
Experiment: yeast MEP2-GFP fusion level changes, TOR pathway – flow cytometry, kMESF, KU SAR set 2, dose response (AID 504468)
Conditions: S. cerevisiae MEP2-GFP strain, flow cytometry fluorescence, 3 h; at 100 µM (top of the series)
In the case of `CNc1nc(NC)c([N+](=O)[O-])c(Nc2cccc(Cl)c2)n1`, the GFP fluorescence (kMESF) is reported as 4.45 kMESF (inactive). In the case of `CNc1nc(N)c(C(=O)c2ccc(C)c(C)c2)c(Nc2cccc(Cl)c2)n1`, the GFP fluorescence (kMESF) is reported as 4.45 kMESF (inactive). For `CNc1nc(N)c([N+](=O)[O-])c(Nc2cccc(OC)c2)n1`, the GFP fluorescence (kMESF) was 7.13 kMESF (inactive). With `CCNc1nc(N)c([N+](=O)[O-])c(Nc2cccc(Cl)c2)n1` the GFP fluorescence (kMESF) was 12 kMESF (inactive). For `CNc1nc(N)c([N+](=O)[O-])c(Nc2ccccc2F)n1`, the GFP fluorescence (kMESF) was 4.66 kMESF (inactive). With `CNc1nc(N)c([N+](=O)[O-])c(Nc2ccccc2Br)n1` the GFP fluorescence (kMESF) was 4.59 kMESF (inactive). With `CNc1nc(N)c([N+](=O)[O-])c(Nc2cccc(Br)c2)n1` the GFP fluorescence (kMESF) was 7.2 kMESF (inactive).

Same assay, conditions: S. cerevisiae MEP2-GFP strain, flow cytometry fluorescence, 3 h; at 300 µM (top of the series)
With `COc1cccc(-c2cc(Nc3cc(C)[nH]n3)nc(NCc3ccccc3)n2)c1` the GFP fluorescence (kMESF) was 2.66 kMESF (inactive). For `CNc1nc(N)cc(Nc2ccccc2F)n1`, the GFP fluorescence (kMESF) was 2.73 kMESF (inactive). For `CNc1nc(N)cc(Oc2cccc(Cl)c2)n1`, the GFP fluorescence (kMESF) was 2.25 kMESF (inactive). With `O=[N+]([O-])c1c(NC2CCCCC2)nc(NCc2ccccc2)nc1N1CCOCC1` the GFP fluorescence (kMESF) was 2.32 kMESF (inactive). In the case of `CNc1nc(N)cc(Nc2cccc(Cl)c2)n1`, the GFP fluorescence (kMESF) is reported as 2.73 kMESF (inactive). In the case of `COC(=O)c1cccc(-c2cc(Nc3cc(C)[nH]n3)nc(NCc3ccccc3)n2)c1`, the GFP fluorescence (kMESF) is reported as 2.46 kMESF (inactive). For `Cc1cc(Nc2cc(Nc3ccccc3)nc(NCc3ccccc3)n2)n[nH]1`, the GFP fluorescence (kMESF) was 2.46 kMESF (inactive). For `COc1ccccc1-c1cc(Nc2cc(C)[nH]n2)nc(NCc2ccccc2)n1`, the GFP fluorescence (kMESF) was 2.59 kMESF (inactive).

Test system: S. cerevisiae MEP2-GFP strain, flow cytometry fluorescence, 3 h
Experiment: as above
Conditions: not given
With `CCNc1nc(NC2CCCCC2)c([N+](=O)[O-])c(N2CCOCC2)n1` the EC50 was 189 µM (inactive). With `Cc1cc(Nc2cc(-c3ccccc3)nc(NCc3ccccc3)n2)n[nH]1` the EC50 was 107 µM (inactive). In the case of `CCOC(=O)c1c(N)nc(NC)nc1Nc1cccc(F)c1`, the EC50 is reported as 81.8 µM (inactive). In the case of `CNc1nc(N)c([N+](=O)[O-])c(Nc2cccc(Oc3ccccc3)c2)n1`, the EC50 is reported as 34.2 µM (inactive).
